biological target: T1, m3 muscarinic receptor subtype (Homo sapiens, UniProt P20309); test: R-SAT assay, muscarinic receptor subtype m3; format: cell-based; settings: transfected NIH-3T3 cells, 5 days, relative to maximum response to carbachol
T1 construct: expressed in transfected cells; host or cells: NIH-3T3 (ATCC CRL 1658)
Description: (§1) Screening Of Test Compounds In An Assay Using Muscarinic Receptor Subtypes m1, m2, m3, m4 and m5. The m1, m2, m3, m4 and m5 muscarinic receptor subtypes were cloned substantially as described by Bonner et al., Science […] and Bonner et al., Neuron 1:403 (1988). R-SAT assays were carried out substantially as described in U.S. Pat. Nos. 5,707,798, 5,912,132, and 5,955,281, and by Braüner-Osborne & Brann, Eur. J. Pharmacol. 295:93 (1995). NIH-3T3 cells (available from the American Type Culture Collection as ATCC CRL 1658) were transfected with plasmid DNA encoding the m1, m2, m3, m4 or m5 receptors and plasmid DNA encoding β-galactosidase. Transfected cells were grown in the presence of between 1 nM and 40 μM of the test compound for 5 days. On day 5, the cells were lysed using 0.5% Nonidet-P and β-galactosidase expression was quantified using the chromogenic substrate o-nitrophenyl-β-D-galactoside (ONGP).
(§2) Data were normalized relative to the maximum response of the cells to the muscarinic agonist carbachol, and the following equation was fitted to the data: • response=minimum+(maximum−minimum)/(1+(EC50/[ligand])) • Where [ligand]=ligand concentration. • % Efficacy was defined as: • (maximum−minimum)/(maximum response of cells to carbachol). • pEC50=−log (EC50). • Where data gave a bell-shaped curve, “maximum” was defined as the highest observed response.

T1 sequence (P20309 whole entry): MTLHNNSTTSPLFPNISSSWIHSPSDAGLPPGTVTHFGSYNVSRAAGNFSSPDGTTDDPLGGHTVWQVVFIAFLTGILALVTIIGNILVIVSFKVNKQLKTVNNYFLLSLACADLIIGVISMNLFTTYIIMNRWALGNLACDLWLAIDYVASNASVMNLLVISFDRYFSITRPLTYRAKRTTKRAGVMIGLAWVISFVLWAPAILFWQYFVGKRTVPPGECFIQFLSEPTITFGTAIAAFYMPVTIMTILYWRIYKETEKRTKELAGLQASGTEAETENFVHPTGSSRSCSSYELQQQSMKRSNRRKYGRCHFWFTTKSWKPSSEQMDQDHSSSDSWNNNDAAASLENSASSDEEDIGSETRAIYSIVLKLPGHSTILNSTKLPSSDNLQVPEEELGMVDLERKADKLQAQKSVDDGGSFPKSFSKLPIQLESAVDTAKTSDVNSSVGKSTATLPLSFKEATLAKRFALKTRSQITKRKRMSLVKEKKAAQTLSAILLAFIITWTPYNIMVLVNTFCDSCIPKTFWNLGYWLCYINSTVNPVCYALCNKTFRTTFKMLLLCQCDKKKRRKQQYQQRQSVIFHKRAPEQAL

Molecule	m3 % Eff
CCCCC1CCN(CCCc2n[nH]c3ccccc23)CC1.Cl [Example 89, 3-[3-(4-Butyl-piperidine-1-yl)-propyl]1-H-indazole, HCl]	no response (No response: Efficacy <25% maximum response of carbachol. This level of activity is not considered significantly different to no response.)
3-[3-(4-Butyl-piperidin-1-yl)-propyl]-benzo[d]isothiazole [Example 93]	no response (No response: Efficacy <25% maximum response of carbachol. This level of activity is not considered significantly different to no response.)
CCCCC1CCN(CCCn2ccc3ccccc32)CC1 [Example 12, 1-(3-(4-n-Butylpiperidine)-1-yl-propyl)-1H-indole]	no response (No response: Efficacy <25% maximum response of carbachol. This level of activity is not considered significantly different to no response.)
CCCCC1CCN(CCCc2nc3c([N+](=O)[O-])cccc3[nH]2)CC1 [Example 28, 4-Nitro-2-(3-(4-n-butylpiperidine)-1-yl-propyl)-1H-benzoimidazole]	no response (No response: Efficacy <25% maximum response of carbachol. This level of activity is not considered significantly different to no response.)

biological target: T2, m2 muscarinic receptor subtype (Homo sapiens, UniProt P08172); test: R-SAT assay, muscarinic receptor subtype m2; format: cell-based; settings: transfected NIH-3T3 cells, 5 days, relative to maximum response to carbachol
T2 construct: expressed in transfected cells; host or cells: NIH-3T3 (ATCC CRL 1658)
T2 sequence (P08172 1-466): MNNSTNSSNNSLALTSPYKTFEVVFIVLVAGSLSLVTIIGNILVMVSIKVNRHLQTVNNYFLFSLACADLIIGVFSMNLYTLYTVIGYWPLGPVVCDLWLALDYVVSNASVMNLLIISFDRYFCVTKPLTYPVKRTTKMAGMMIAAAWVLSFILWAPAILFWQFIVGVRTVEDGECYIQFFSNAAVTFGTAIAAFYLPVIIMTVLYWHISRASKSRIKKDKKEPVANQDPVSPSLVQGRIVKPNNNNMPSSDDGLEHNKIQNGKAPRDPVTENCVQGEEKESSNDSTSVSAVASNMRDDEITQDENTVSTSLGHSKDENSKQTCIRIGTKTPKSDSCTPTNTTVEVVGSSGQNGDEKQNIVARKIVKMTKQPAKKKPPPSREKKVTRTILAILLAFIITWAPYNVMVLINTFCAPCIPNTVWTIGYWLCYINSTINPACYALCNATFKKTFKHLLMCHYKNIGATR
Description: as §1, §2

Molecule	m2 % Eff
CCCCC1CCN(CCCc2n[nH]c3ccccc23)CC1.Cl [Example 89, 3-[3-(4-Butyl-piperidine-1-yl)-propyl]1-H-indazole, HCl]	no response (No response: Efficacy <25% maximum response of carbachol. This level of activity is not considered significantly different to no response.)
3-[3-(4-Butyl-piperidin-1-yl)-propyl]-benzo[d]isothiazole [Example 93]	no response (No response: Efficacy <25% maximum response of carbachol. This level of activity is not considered significantly different to no response.)
CCCCC1CCN(CCCn2ccc3ccccc32)CC1 [Example 12, 1-(3-(4-n-Butylpiperidine)-1-yl-propyl)-1H-indole]	no response (No response: Efficacy <25% maximum response of carbachol. This level of activity is not considered significantly different to no response.)
CCCCC1CCN(CCCn2nc(Cl)c3ccccc32)CC1 [Example 65, 1-[3-(4-Butylpiperidin-1-yl)-propyl]-3-chloro-1H-indazole]	no response (No response: Efficacy <25% maximum response of carbachol. This level of activity is not considered significantly different to no response.)

biological target: T3, m4 muscarinic receptor subtype (Homo sapiens, UniProt P08173); test: R-SAT assay, muscarinic receptor subtype m4; format: cell-based; settings: transfected NIH-3T3 cells, 5 days
T3 construct: expressed in transfected cells; host or cells: NIH-3T3 (ATCC CRL 1658)
T3 sequence (P08173 1-479): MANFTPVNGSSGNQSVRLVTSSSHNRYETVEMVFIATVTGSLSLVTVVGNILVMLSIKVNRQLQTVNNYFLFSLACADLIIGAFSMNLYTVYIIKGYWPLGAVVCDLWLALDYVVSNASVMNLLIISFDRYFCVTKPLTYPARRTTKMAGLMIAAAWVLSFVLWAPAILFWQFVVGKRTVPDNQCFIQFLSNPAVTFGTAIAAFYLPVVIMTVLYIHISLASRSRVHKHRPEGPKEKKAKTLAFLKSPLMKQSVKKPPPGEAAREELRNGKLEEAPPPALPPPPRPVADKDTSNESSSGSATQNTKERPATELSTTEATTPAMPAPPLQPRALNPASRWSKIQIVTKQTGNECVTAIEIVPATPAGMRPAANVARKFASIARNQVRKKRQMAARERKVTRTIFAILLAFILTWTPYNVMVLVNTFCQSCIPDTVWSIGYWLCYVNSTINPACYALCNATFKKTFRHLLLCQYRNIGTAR
Description: (§3) Transfected cells were grown in the presence of between 1 nM and 40 μM of the test compound for 5 days. On day 5, the cells were lysed using 0.5% Nonidet-P and β-galactosidase expression was quantified using the chromogenic substrate o-nitrophenyl-β-D-galactoside (ONGP).
as §2

m4 pEC50	Molecule
6.4	3-[3-(4-Butyl-piperidin-1-yl)-propyl]-benzo[d]isothiazole [Example 93]
<5.5	CCCCC1CCN(CCCn2nc(Cl)c3ccccc32)CC1 [Example 65, 1-[3-(4-Butylpiperidin-1-yl)-propyl]-3-chloro-1H-indazole]

Molecule	m4 pEC50
CCCCC1CCN(CCCc2n[nH]c3ccccc23)CC1.Cl [Example 89, 3-[3-(4-Butyl-piperidine-1-yl)-propyl]1-H-indazole, HCl]	6.8

same assay, conditions: transfected NIH-3T3 cells, 5 days, relative to maximum response to carbachol

Molecule	m4 % Eff
CCCCC1CCN(CCCc2n[nH]c3ccccc23)CC1.Cl [Example 89, 3-[3-(4-Butyl-piperidine-1-yl)-propyl]1-H-indazole, HCl]	53%
3-[3-(4-Butyl-piperidin-1-yl)-propyl]-benzo[d]isothiazole [Example 93]	58%
CCCCC1CCN(CCCn2nc(Cl)c3ccccc32)CC1 [Example 65, 1-[3-(4-Butylpiperidin-1-yl)-propyl]-3-chloro-1H-indazole]	34%
CCCCC1CCN(CCCc2nc3c([N+](=O)[O-])cccc3[nH]2)CC1 [Example 28, 4-Nitro-2-(3-(4-n-butylpiperidine)-1-yl-propyl)-1H-benzoimidazole]	no response (No response: Efficacy <25% maximum response of carbachol. This level of activity is not considered significantly different to no response.)

biological target: T4, m5 muscarinic receptor subtype (Homo sapiens, UniProt P08912); test: R-SAT assay, muscarinic receptor subtype m5; format: cell-based; settings: transfected NIH-3T3 cells, 5 days, relative to maximum response to carbachol
T4 construct: expressed in transfected cells; host or cells: NIH-3T3 (ATCC CRL 1658)
T4 sequence (P08912 1-532): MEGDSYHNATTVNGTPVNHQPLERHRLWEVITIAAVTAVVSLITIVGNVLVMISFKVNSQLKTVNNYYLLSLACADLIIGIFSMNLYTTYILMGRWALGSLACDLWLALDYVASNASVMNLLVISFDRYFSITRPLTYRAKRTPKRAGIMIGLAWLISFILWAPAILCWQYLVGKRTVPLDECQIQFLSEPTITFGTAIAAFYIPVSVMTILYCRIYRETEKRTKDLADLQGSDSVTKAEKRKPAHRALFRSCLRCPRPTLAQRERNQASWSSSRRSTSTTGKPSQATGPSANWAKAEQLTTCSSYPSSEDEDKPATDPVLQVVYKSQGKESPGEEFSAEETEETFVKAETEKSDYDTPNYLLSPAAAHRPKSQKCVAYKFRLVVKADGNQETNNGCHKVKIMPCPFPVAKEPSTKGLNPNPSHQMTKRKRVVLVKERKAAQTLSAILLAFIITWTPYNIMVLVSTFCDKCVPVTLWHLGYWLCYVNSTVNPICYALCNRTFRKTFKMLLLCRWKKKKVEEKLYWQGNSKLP
Description: as §1, §2

Molecule	m5 % Eff
CCCCC1CCN(CCCc2n[nH]c3ccccc23)CC1.Cl [Example 89, 3-[3-(4-Butyl-piperidine-1-yl)-propyl]1-H-indazole, HCl]	no response (No response: Efficacy <25% maximum response of carbachol. This level of activity is not considered significantly different to no response.)
3-[3-(4-Butyl-piperidin-1-yl)-propyl]-benzo[d]isothiazole [Example 93]	no response (No response: Efficacy <25% maximum response of carbachol. This level of activity is not considered significantly different to no response.)
CCCCC1CCN(CCCn2ccc3ccccc32)CC1 [Example 12, 1-(3-(4-n-Butylpiperidine)-1-yl-propyl)-1H-indole]	no response (No response: Efficacy <25% maximum response of carbachol. This level of activity is not considered significantly different to no response.)
CCCCC1CCN(CCCc2nc3c([N+](=O)[O-])cccc3[nH]2)CC1 [Example 28, 4-Nitro-2-(3-(4-n-butylpiperidine)-1-yl-propyl)-1H-benzoimidazole]	no response (No response: Efficacy <25% maximum response of carbachol. This level of activity is not considered significantly different to no response.)

biological target: T5, m1 muscarinic receptor subtype (Homo sapiens, UniProt P11229); test: R-SAT assay, muscarinic receptor subtype m1; format: cell-based; settings: transfected NIH-3T3 cells, 5 days
T5 construct: expressed in transfected cells; host or cells: NIH-3T3 (ATCC CRL 1658)
T5 sequence (P11229 1-460): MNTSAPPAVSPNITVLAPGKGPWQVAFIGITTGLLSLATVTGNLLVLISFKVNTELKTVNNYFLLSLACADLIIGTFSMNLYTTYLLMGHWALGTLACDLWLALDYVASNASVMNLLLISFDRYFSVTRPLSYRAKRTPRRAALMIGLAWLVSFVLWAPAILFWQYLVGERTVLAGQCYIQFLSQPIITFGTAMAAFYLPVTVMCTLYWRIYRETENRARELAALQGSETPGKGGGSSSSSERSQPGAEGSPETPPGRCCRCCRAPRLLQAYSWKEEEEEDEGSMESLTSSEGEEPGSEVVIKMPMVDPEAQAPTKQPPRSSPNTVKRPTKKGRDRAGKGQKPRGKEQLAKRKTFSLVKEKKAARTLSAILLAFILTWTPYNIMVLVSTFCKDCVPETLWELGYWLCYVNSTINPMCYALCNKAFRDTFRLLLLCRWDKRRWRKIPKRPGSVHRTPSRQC
Description: as §3, §2

Molecule	m1 pEC50
CCCCC1CCN(CCCc2n[nH]c3ccccc23)CC1.Cl [Example 89, 3-[3-(4-Butyl-piperidine-1-yl)-propyl]1-H-indazole, HCl]	7.3
3-[3-(4-Butyl-piperidin-1-yl)-propyl]-benzo[d]isothiazole [Example 93]	7.1
CCCCC1CCN(CCCn2ccc3ccccc32)CC1 [Example 12, 1-(3-(4-n-Butylpiperidine)-1-yl-propyl)-1H-indole]	5.9

Further lines, results first:

m1 pEC50	Molecule
6.0	CCCCC1CCN(CCCn2nc(Cl)c3ccccc32)CC1 [Example 65, 1-[3-(4-Butylpiperidin-1-yl)-propyl]-3-chloro-1H-indazole]
6.5	CCCCC1CCN(CCCc2nc3c([N+](=O)[O-])cccc3[nH]2)CC1 [Example 28, 4-Nitro-2-(3-(4-n-butylpiperidine)-1-yl-propyl)-1H-benzoimidazole]

same assay, conditions: transfected NIH-3T3 cells, 5 days, relative to maximum response to carbachol

Molecule	m1 % Eff
CCCCC1CCN(CCCc2n[nH]c3ccccc23)CC1.Cl [Example 89, 3-[3-(4-Butyl-piperidine-1-yl)-propyl]1-H-indazole, HCl]	85%
3-[3-(4-Butyl-piperidin-1-yl)-propyl]-benzo[d]isothiazole [Example 93]	83%
CCCCC1CCN(CCCn2ccc3ccccc32)CC1 [Example 12, 1-(3-(4-n-Butylpiperidine)-1-yl-propyl)-1H-indole]	59%

Results, then the molecule that gave them:

m1 % Eff	Molecule
45%	CCCCC1CCN(CCCn2nc(Cl)c3ccccc32)CC1 [Example 65, 1-[3-(4-Butylpiperidin-1-yl)-propyl]-3-chloro-1H-indazole]
38%	CCCCC1CCN(CCCc2nc3c([N+](=O)[O-])cccc3[nH]2)CC1 [Example 28, 4-Nitro-2-(3-(4-n-butylpiperidine)-1-yl-propyl)-1H-benzoimidazole]
